Peptide text beside a SMILES is read from it.
Experiments:
[1] = Levels of pyruvate in the brain; format: in vivo, mouse; conditions: GAI-17 treatment; data not shown
[2] = Physiological parameters during ischemia/reperfusion; format: in vivo, mouse; conditions: 60 nmol GAI-17, during ischemia-reperfusion
Human recombinant GAPDH = Human recombinant GAPDH (Homo sapiens, UniProt P04406); experiment: GAI peptide inhibition of GAPDH aggregation; format: biochemical; conditions: read-out: Potency: Aggregation inhibitory activity (%); SD
Chain of Human recombinant GAPDH (P04406 whole entry, the tested form may be a part): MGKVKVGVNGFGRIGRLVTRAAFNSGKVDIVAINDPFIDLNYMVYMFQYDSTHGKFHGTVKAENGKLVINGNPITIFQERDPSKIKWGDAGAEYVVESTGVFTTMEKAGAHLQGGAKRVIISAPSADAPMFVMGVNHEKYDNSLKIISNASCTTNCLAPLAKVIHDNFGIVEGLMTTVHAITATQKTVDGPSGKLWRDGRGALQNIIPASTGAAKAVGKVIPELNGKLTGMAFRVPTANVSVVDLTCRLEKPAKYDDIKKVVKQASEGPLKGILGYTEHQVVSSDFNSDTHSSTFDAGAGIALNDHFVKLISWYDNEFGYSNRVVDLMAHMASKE

[3] = Regional cerebral blood flow; format: in vivo, mouse; conditions: 60 nmol GAI-17, during ischemia-reperfusion; n = 4
[4] = Stability in mouse blood serum; format: in vitro ADME; conditions: prediction: endopeptidase cleavage upon peripheral injection; not tested
[5] = system: mouse model of AIS induced by transient MCAO; conditions: in vivo
mouse GAPDH = mouse GAPDH (Mus musculus, UniProt P16858); experiment: In vitro GAPDH aggregation assay with C152A-GAPDH; format: biochemical; conditions: mouse GAPDH 0.3 mg/ml + C152A-GAPDH 0-0.75 mg/ml, 37°C 24 h, A405; n = 3
Chain of mouse GAPDH (P16858 whole entry): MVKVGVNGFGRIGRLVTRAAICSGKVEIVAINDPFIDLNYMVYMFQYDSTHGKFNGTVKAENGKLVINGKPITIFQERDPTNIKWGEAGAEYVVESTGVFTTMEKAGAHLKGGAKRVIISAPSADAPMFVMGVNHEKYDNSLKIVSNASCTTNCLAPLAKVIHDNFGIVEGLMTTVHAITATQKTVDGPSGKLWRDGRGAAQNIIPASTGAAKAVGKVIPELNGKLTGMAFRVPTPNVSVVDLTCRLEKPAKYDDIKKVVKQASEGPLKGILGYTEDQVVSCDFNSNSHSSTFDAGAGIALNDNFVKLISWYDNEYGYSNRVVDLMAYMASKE

## C[C@@H](O)[C@H](NC(=O)[C@H](CS)NC(=O)[C@@H](N)CO)C(=O)O [GAI-17] (H-Ser-Cys-Thr-OH)
[1]
  Levels of pyruvate in the brain: did not affect
[2]
  Physiological parameters (MBP, HR, blood PaO2, PaCO2, pH, RT): no changes
Human recombinant GAPDH
  inhibition: 97.2 ± 1.88%
[3]
  Cerebral blood flow: no changes
[4]
  Stability in mouse blood serum: predicted to be unstable

## C#CCN(C)[C@H](C)Cc1ccccc1 [deprenyl]
[5]
  Development of brain infarction caused by MCAO (infarct volume in whole brain): no significant effect

## human GAPDH-C152A: His-tagged recombinant human GAPDH mutant with Cys-152 substituted to alanine, dominant-negative for aggregation
Mouse GAPDH
  Inhibitory effect on mouse GAPDH aggregation in vitro: confirmed in vitro

From publication PMC12144414 (iScience, 2025)
